Reference: patent US20230212191A1, “SPIRO-SULFONIMIDAMIDE DERIVATIVES AS INHIBITORS OF MYELOID CELL LEUKEMIA-1 (MCL-1) PROTEIN” (PRELUDE THERAPEUTICS, INCORPORATED, priority 2020, published 2023)
pIC50, pKi: −log10 of the molar value. Where two headings read alike, the source gives them in different places.

Columns and labels:
MCL-1 = molecular target: T1, MCL-1 (Homo sapiens, UniProt Q07820); test: Cell free Mcl-1:Bim affinity assay (fluorescence polarization competition); format: binding; details: 15 nM MCL-1, 5 nM FITC-Bim tracer, 1 hour at room temperature; Ki calc. from IC50 by Nikolovska-Coleska's equation; read-out: BIM_ Ki
T1 construct: purchased BPS Bioscience
T1 sequence (Q07820 whole entry): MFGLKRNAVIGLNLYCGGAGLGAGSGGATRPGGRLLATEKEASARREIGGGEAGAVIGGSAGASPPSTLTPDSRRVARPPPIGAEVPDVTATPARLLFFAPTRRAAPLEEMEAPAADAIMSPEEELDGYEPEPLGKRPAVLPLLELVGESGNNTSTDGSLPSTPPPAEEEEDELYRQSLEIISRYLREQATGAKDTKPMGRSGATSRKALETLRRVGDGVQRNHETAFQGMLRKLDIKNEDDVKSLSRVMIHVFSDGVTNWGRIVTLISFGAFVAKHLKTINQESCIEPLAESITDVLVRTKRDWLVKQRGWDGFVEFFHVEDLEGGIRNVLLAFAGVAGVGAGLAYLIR
Procedure: Cell Free Mcl-1:Bim Affinity Assay (Mcl-1 Bim)
The binding affinity of each compound was measured via a fluorescence polarization competition assay, in which the compound competes for the same binding site with the ligand, and thus leads to a dose-dependent anisotropy reduction. The tracer ligand utilized was a fluorescein isothiocyanate labelled peptide (FITC-[…]) derived from Bim (GenScript).
The assay was carried out in black half-area 96-well NBS plate (Corning), containing 15 nM of MCL-1 (BPS Bioscience), 5 nM of FITC-Bim and 3-fold serial diluted test compounds in a total volume of 50 μL of assay buffer (20 mM HEPES, 50 mM NaCl, 0.002% Tween 20, 1 mM TCEP, and 1% DMSO). The reaction plate was incubated for 1 hour at room temperature. The change of anisotropy is measured with an Envision multimode plate reader (PerkinElmer) at emission wavelength 535 nm. Fluorescence polarization was calc. in mP unit and the percentage inhibition was calc. by % inhibition=100×(mPDMSO−mP)/(mPDMSO−mPPC), in which mPDMSO is the DMSO control, and mPPC is the positive control. IC50 values were determined from a 10-point dose response curve by fitting the percent inhibition against compound concentration using the GraphPad Prism software. The inhibition constant Ki was subsequently calc. according to the Nikolovska-Coleska's equation (Anal. Biochem., 2004, 332, 261),
where [I]50 is the concentration of the free inhibitor at 50% inhibition, [L]50 is the concentration of the free labeled ligand at 50% inhibition, [P]0 is the concentration of the free protein at 0% inhibition, and Kd is the dissociation constant of the protein-ligand complex.

H929 cells = test: Cell viability assay (H929 10 FBS); format: cell-based; details: CellTiter-Glo or ATPlite, read-out: H929_10FBS IC50
Procedure: Cell Viability Assay (H929 10 FBS)
Dispense 10 μL aliquot of prepared H929 cells (1:1 ratio of cells:Trypan Blue (#1450013, Bio-Rad)) onto cell counting slide (#145-0011, Bio-Rad) and obtain cell density and cell viability using cell counter (TC20, Bio-Rad). Remove appropriate volume of resuspended cells from culture flask to accommodate 4000 cells/well @ 10 μL/well. Transfer H929 cells to 50 mL conical (#430290, Corning). Spin down at 1000 rpm for 5 min using tabletop centrifuge (SPINCHRON 15, Beckman). Discard supernatant and resuspend cell pellet in modified RPMI 1640 (#10-040-CV, Corning) cell culture media containing 10% FBS (F2422-500 ML, Sigma), sodium pyruvate (100 mM) (#25-000-CL, Corning), HEPES buffer (1 M) (#25-060-CL, Corning) and glucose (200 g/L) (A24940-01, Gibco) to a cell density of 400,000 cells/mL. Dispense 10 μL of resuspended H929 cells per well in 384-well small volume TC treated plate (#784080, Greiner Bio-one) using standard cassette (#50950372, Thermo Scientific) on Multi-drop Combi (#5840310, Thermo Scientific) in laminar flow cabinet. Dispense compounds onto plates using digital liquid dispenser (D300E, Tecan). Incubate plates in humidified tissue culture incubator @ 37° C. for 24 hours. Add 10 μL of prepared CellTiTer-Glo® detection buffer (G7570, Promega) or ATPlite 1Step detection reagent (#6016731, Perkin Elmer) to each well of 384-well plate using small tube cassette (#24073295, Thermo Scientific) on Combi multi drop, incubate @ RT for 30-60 min. Read plates with microplate reader (PheraStar, BMG Labtech) using 384 well luminescence mode.

SMILES	pKi (MCL-1)	pIC50 (H929 cells; 24 hours)	pIC50 (H929 cells; Homo sapiens, NCI-H929, 24 h)
CO[C@H]1/C=C/COC(C)(C)C(=O)N=S(=O)(NC(=O)c2ccccc2)c2ccc3c(c2)N(C[C@@H]2CC[C@H]21)C[C@@]1(CCCc2cc(Cl)ccc21)CO3 (stereo partly drawn) [Example 12, N-[(3R,6R,7S,8E,22S)-7′-Chloro-7-methoxy-12,12-dimethyl-13,15-dioxospiro[11,20-dioxa-15-thia-1,14-diazatetracyclo[14.7.2.03,6.019,24]pentacosa-8,14,16,18,24-pentaene-22,4′-2,3-dihydro-1H-naphthalene]-15-yl]benzamide]	> 9.00		6.30 to 7.00
CO[C@H]1/C=C/COC(C)(C)C(=O)N=S(=O)(NC(=O)c2cc(C)n(C)n2)c2ccc3c(c2)N(C[C@@H]2CC[C@H]21)C[C@@]1(CCCc2cc(Cl)ccc21)CO3 (stereo partly drawn) [Example 19, N-[(3R,6R,7S,8E,22S)-7′-Chloro-7-methoxy-12,12-dimethyl-13,15-dioxospiro[11,20-dioxa-15-thia-1,14-diazatetracyclo[14.7.2.03,6.019,24]pentacosa-8,14,16,18,24-pentaene-22,4′-2,3-dihydro-1H-naphthalene]-15-yl]-1,5-dimethylpyrazole-3-carboxamide]	> 9.00		
Cc1nn(C)cc1C(=O)NS1(=O)=NC(=O)C(C)(C)OC/C=C/[C@H](OC(=O)N(C)C)[C@@H]2CC[C@H]2CN2C[C@@]3(CCCc4cc(Cl)ccc43)COc3ccc1cc32 (stereo partly drawn) [Example 51, [(3R,6R,7S,8E,22S)-7′-Chloro-15-[(1,3-dimethylpyrazole-4-carbonyl)amino]-12,12-dimethyl-13,15-dioxospiro[11,20-dioxa-15-thia-1,14-diazatetracyclo[14.7.2.03,6.019,24]pentacosa-8,14,16,18,24-pentaene-22,4′-2,3-dihydro-1H-naphthalene]-7-yl] N,N-dimethylcarbamate]	> 9.00		
Cn1cc(C(=O)NS2(=O)=NC(=O)C(C)(C)OC/C=C/[C@H](O)[C@@H]3CC[C@H]3CN3C[C@@]4(CCCc5cc(Cl)ccc54)COc4ccc2cc43)cn1 (stereo partly drawn) [Example 52, N-[(3R,6R,7S,8E,22S)-7′-Chloro-7-hydroxy-12,12-dimethyl-13,15-dioxospiro[11,20-dioxa-15-thia-1,14-diazatetracyclo[14.7.2.03,6.019,24]pentacosa-8,14,16,18,24-pentaene-22,4′-2,3-dihydro-1H-naphthalene]-15-yl]-1-methylpyrazole-4-carboxamide]	< 9.00		
CN(C)C(=O)O[C@H]1/C=C/COC(C)(C)C(=O)N=S(=O)(NC(=O)c2cnn(C)c2)c2ccc3c(c2)N(C[C@@H]2CC[C@H]21)C[C@@]1(CCCc2cc(Cl)ccc21)CO3 (stereo partly drawn) [Example 53, [(3R,6R,7S,8E,22S)-7′-Chloro-12,12-dimethyl-15-[(1-methylpyrazole-4-carbonyl)amino]-13,15-dioxospiro[11,20-dioxa-15-thia-1,14-diazatetracyclo[14.7.2.03,6.019,24]pentacosa-8,14,16,18,24-pentaene-22,4′-2,3-dihydro-1H-naphthalene]-7-yl] N,N-dimethylcarbamate]	> 9.00		
CC(C)C(=O)NS1(=O)=NC(=O)C(C)(C)OC/C=C/[C@H](OCCN2CCCC2)[C@@H]2CC[C@H]2CN2C[C@@]3(CCCc4cc(Cl)ccc43)COc3ccc1cc32 (stereo partly drawn) [Example 54, N-[(3R,6R,7S,8E,22S)-7′-Chloro-12,12-dimethyl-13,15-dioxo-7-(2-pyrrolidin-1-ylethoxy)spiro[11,20-dioxa-15-thia-1,14-diazatetracyclo[14.7.2.03,6.019,24]pentacosa-8,14,16,18,24-pentaene-22,4′-2,3-dihydro-1H-naphthalene]-15-yl]-2-methylpropanamide]	> 9.00		

Continued, values first:

pKi (MCL-1)	pIC50 (H929 cells; 24 hours)	pIC50 (H929 cells; Homo sapiens, NCI-H929, 24 h)	SMILES
> 9.00	> 7.00		COC1C=CCOC(C)(C)C(=O)N=S(=O)(NC(=O)N2CC(O)C2)c2ccc3c(c2)N(CC2CCC21)CC1(CCCc2cc(Cl)ccc21)CO3 (stereo not shown) [29 or 30]
< 9.00	< 6.30		COC1C=CCOC(C)(C)C(=O)N=S(=O)(NC(=O)N2CC(O)C2)c2ccc3c(c2)N(CC2CCC21)CC1(CCCc2cc(Cl)ccc21)CO3 (stereo not shown) [30 or 29]
> 9.00		> 7.00	COC1CN(C(=O)NS2(=O)=NC(=O)C(C)(C)OCC=CC(OC)C3CCC3CN3CC4(CCCc5cc(Cl)ccc54)COc4ccc2cc43)C1 (stereo not shown) [31 or 32]
> 9.00	6.30 to 7.00		COC1CN(C(=O)NS2(=O)=NC(=O)C(C)(C)OCC=CC(OC)C3CCC3CN3CC4(CCCc5cc(Cl)ccc54)COc4ccc2cc43)C1 (stereo not shown) [32 or 31]
> 9.00		> 7.00	CO[C@H]1/C=C/COC(C)(C)C(=O)N=S(=O)(NC(=O)C2CCOCC2)c2ccc3c(c2)N(C[C@@H]2CC[C@H]21)C[C@@]1(CCCc2cc(Cl)ccc21)CO3 (stereo partly drawn) [Example 11, N-[(3R,6R,7S,8E,22S)-7′-Chloro-7-methoxy-12,12-dimethyl-13,15-dioxospiro[11,20-dioxa-15-thia-1,14-diazatetracyclo[14.7.2.03,6.019,24]pentacosa-8,14,16,18,24-pentaene-22,4′-2,3-dihydro-1H-naphthalene]-15-yl]oxane-4-carboxamide]
> 9.00		> 7.00	CO[C@H]1/C=C/COC(C)(C)C(=O)N=S(=O)(NC(=O)c2cnn(C)c2)c2ccc3c(c2)N(C[C@@H]2CC[C@H]21)C[C@@]1(CCCc2cc(Cl)ccc21)CO3 (stereo partly drawn) [Example 15, N-[(3R,6R,7S,8E,22S)-7′-Chloro-7-methoxy-12,12-dimethyl-13,15-dioxospiro[11,20-dioxa-15-thia-1,14-diazatetracyclo[14.7.2.03,6.019,24]pentacosa-8,14,16,18,24-pentaene-22,4′-2,3-dihydro-1H-naphthalene]-15-yl]-1-methylpyrazole-4-carboxamide]
> 9.00			CO[C@H]1/C=C/COC(C)(C)C(=O)N=S(=O)(NC(=O)c2cnn(C)c2C)c2ccc3c(c2)N(C[C@@H]2CC[C@H]21)C[C@@]1(CCCc2cc(Cl)ccc21)CO3 (stereo partly drawn) [Example 18, N-[(3R,6R,7S,8E,22S)-7′-Chloro-7-methoxy-12,12-dimethyl-13,15-dioxospiro[11,20-dioxa-15-thia-1,14-diazatetracyclo[14.7.2.03,6.019,24]pentacosa-8,14,16,18,24-pentaene-22,4′-2,3-dihydro-1H-naphthalene]-15-yl]-1,5-dimethylpyrazole-4-carboxamide]
< 9.00			CO[C@H]1/C=C/COC(C)(C)C(=O)N=S(=O)(NC(=O)NC2CCOCC2)c2ccc3c(c2)N(C[C@@H]2CC[C@H]21)C[C@@]1(CCCc2cc(Cl)ccc21)CO3 (stereo partly drawn) [Example 38, 1-[(3R,6R,7S,8E,22S)-7′-Chloro-7-methoxy-12,12-dimethyl-13,15-dioxospiro[11,20-dioxa-15-thia-1,14-diazatetracyclo[14.7.2.03,6.019,24]pentacosa-8,14,16,18,24-pentaene-22,4′-2,3-dihydro-1H-naphthalene]-15-yl]-3-(oxan-4-yl)urea]
< 9.00			CC(C)C(=O)NS1(=O)=NC(=O)C(C)(C)OC/C=C/[C@H](OCCN(C)C)[C@@H]2CC[C@H]2CN2C[C@@]3(CCCc4cc(Cl)ccc43)COc3ccc1cc32 (stereo partly drawn) [Example 55, N-[(3R,6R,7S,8E,22S)-7′-Chloro-7-[2-(dimethylamino)ethoxy]-12,12-dimethyl-13,15-dioxospiro[11,20-dioxa-15-thia-1,14-diazatetracyclo[14.7.2.03,6.019,24]pentacosa-8,14,16,18,24-pentaene-22,4′-2,3-dihydro-1H-naphthalene]-15-yl]-2-methylpropanamide]
